Experimental data: PubChem BioAssay AID256 (DTP/NCI, 2004)
“And” between values parts separate entries of the source, which are not always exact repeats. Equal entries are not always repeated. Inconclusive results and toxic doses are left out.

Tested on: CD2F1 mice, L1210 leukemia ip, survival T/C
Assay: NCI In Vivo Anticancer Drug Screen. Data for tumor model L1210 Leukemia (intraperitoneal) in CD2F1 (CDF1) mice
Conditions: higher = longer survival
Summary of the method: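 Transplantable tumor in mice; compound-treated vs vehicle-treated groups. Read-out = treated/control ratio of the measured endpoint.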

[1] = endpoint: mean survival time, dose: 100.0 mg/kg/injection, schedule: Q01DX001 (ip), vehicle: saline
[2] = endpoint: mean survival time, dose: 200.0 mg/kg/injection, schedule: Q01DX001 (ip), vehicle: saline
[3] = endpoint: mean survival time, dose: 100.0 mg/kg/injection, schedule: Q04DX002 (ip), vehicle: saline with Tween-80
[4] = endpoint: mean survival time, dose: 200.0 mg/kg/injection, schedule: Q04DX002 (ip), vehicle: saline with Tween-80
[5] = endpoint: mean survival time, dose: 400.0 mg/kg/injection, schedule: Q04DX002 (ip), vehicle: saline with Tween-80
[6] = endpoint: mean survival time, dose: 200.0 mg/kg/injection, schedule: Q04DX003 (ip), vehicle: saline with Tween-80
[7] = endpoint: mean survival time, dose: 400.0 mg/kg/injection, schedule: Q04DX003 (ip), vehicle: saline with Tween-80
[8] = endpoint: mean survival time, dose: 100.0 mg/kg/injection, schedule: Q01DX001 (ip), vehicle: saline with Tween-80
[9] = endpoint: mean survival time, dose: 400.0 mg/kg/injection, schedule: Q01DX001 (ip), vehicle: saline with Tween-80
[10] = endpoint: mean survival time, dose: 100.0 mg/kg/injection, schedule: Q01DX009 (ip), vehicle: saline with Tween-80
[11] = endpoint: mean survival time, dose: 200.0 mg/kg/injection, schedule: Q01DX001 (ip), vehicle: saline with Tween-80
[12] = endpoint: mean survival time, dose: 200.0 mg/kg/injection, schedule: Q01DX009 (ip), vehicle: saline with Tween-80
[13] = endpoint: mean survival time, dose: 400.0 mg/kg/injection, schedule: Q01DX009 (ip), vehicle: saline with Tween-80
[14] = endpoint: mean survival time, dose: 400.0 mg/kg/injection, schedule: Q01DX001 (ip), vehicle: saline
[15] = endpoint: mean survival time, dose: 50.0 mg/kg/injection, schedule: Q01DX009 (ip), vehicle: saline with Tween-80
[16] = endpoint: mean survival time, dose: 100.0 mg/kg/injection, schedule: Q04DX003 (ip), vehicle: saline with Tween-80

## COc1cc(CC#N)ccc1OCc1ccccc1
endpoint: mean survival time, dose: 12.5 mg/kg/injection, schedule: Q01DX009 (ip), vehicle: other
  T/C: 102 % of control
endpoint: mean survival time, dose: 25.0 mg/kg/injection, schedule: Q01DX009 (ip), vehicle: other
  T/C: 101 % of control
endpoint: mean survival time, dose: 25.0 mg/kg/injection, schedule: Q04DX003 (ip), vehicle: other
  T/C: 102 % of control
endpoint: mean survival time, dose: 50.0 mg/kg/injection, schedule: Q01DX009 (ip), vehicle: other
  T/C: 100 % of control
endpoint: mean survival time, dose: 50.0 mg/kg/injection, schedule: Q04DX003 (ip), vehicle: other
  T/C: 96 % of control
endpoint: mean survival time, dose: 100.0 mg/kg/injection, schedule: Q04DX003 (ip), vehicle: other
  T/C: 103 % of control

## CC(=O)Nc1nc(C)cs1
endpoint: mean survival time, dose: 75.0 mg/kg/injection, schedule: Q01DX001 (ip), vehicle: saline
  T/C: 98 % of control
endpoint: mean survival time, dose: 150.0 mg/kg/injection, schedule: Q01DX001 (ip), vehicle: saline
  T/C: 97 % of control
endpoint: mean survival time, dose: 300.0 mg/kg/injection, schedule: Q01DX001 (ip), vehicle: saline
  T/C: 98 % of control

## CC1(C2CC(=O)OC2=O)OCCO1 (stereo unspecified)
endpoint: mean survival time, dose: 50.0 mg/kg/injection, schedule: Q01DX001 (ip), vehicle: saline
  T/C: 96 % of control
[1]
  T/C: 102 % of control
[2]
  T/C: 93 % of control

## O=C1O/C(=C2/OC(=O)c3ccccc32)c2ccccc21
endpoint: mean survival time, dose: 50.0 mg/kg/injection, schedule: Q04DX002 (ip), vehicle: saline with Tween-80
  T/C: 92 % of control
[3]
  T/C: 92 % of control
[4]
  T/C: 92 % of control
[5]
  T/C: 96 % of control

## Nc1ncn(C2CC(O)C(CO)O2)c(=O)n1 (stereo unspecified)
endpoint: mean survival time, dose: 0.12 mg/kg/injection, schedule: Q01DX009 (ip), vehicle: saline
  T/C: 160 % of control and 175 % of control
endpoint: mean survival time, dose: 0.25 mg/kg/injection, schedule: Q01DX009 (ip), vehicle: Klucel (hydroxypropylcellulose) (HPC)
  T/C: 195 % of control
endpoint: mean survival time, dose: 0.25 mg/kg/injection, schedule: Q01DX009 (ip), vehicle: saline
  T/C: 193 % of control and 221 % of control
endpoint: mean survival time, dose: 0.5 mg/kg/injection, schedule: Q01DX009 (ip), vehicle: Klucel (hydroxypropylcellulose) (HPC)
  T/C: 219 % of control
endpoint: mean survival time, dose: 0.5 mg/kg/injection, schedule: Q01DX009 (ip), vehicle: saline
  T/C: 229 % of control and 258 % of control
endpoint: mean survival time, dose: 1.0 mg/kg/injection, schedule: Q01DX009 (ip), vehicle: Klucel (hydroxypropylcellulose) (HPC)
  T/C: 227 % of control
endpoint: mean survival time, dose: 1.0 mg/kg/injection, schedule: Q01DX009 (ip), vehicle: saline
  T/C: 258 % of control and 296 % of control
endpoint: mean survival time, dose: 4.0 mg/kg/injection, schedule: Q01DX009 (ip), vehicle: Klucel (hydroxypropylcellulose) (HPC)
  T/C: 113 % of control
endpoint: mean survival time, dose: 4.0 mg/kg/injection, schedule: Q01DX009 (ip), vehicle: saline
  T/C: 121 % of control
endpoint: mean survival time, dose: 8.0 mg/kg/injection, schedule: Q01DX009 (ip), vehicle: Klucel (hydroxypropylcellulose) (HPC)
  T/C: 98 % of control
endpoint: median survival time, dose: 0.25 mg/kg/injection, schedule: Q01DX009 (ip), vehicle: saline
  T/C: 211 % of control
endpoint: median survival time, dose: 0.5 mg/kg/injection, schedule: Q01DX009 (ip), vehicle: saline
  T/C: 247 % of control
endpoint: median survival time, dose: 1.0 mg/kg/injection, schedule: Q01DX009 (ip), vehicle: saline
  T/C: 297 % of control
endpoint: median survival time, dose: 8.0 mg/kg/injection, schedule: Q01DX009 (ip), vehicle: saline
  T/C: 117 % of control

## CCOC(=O)CC(=O)c1c(C)cc(C)c(Br)c1C
[6]
  T/C: 97 % of control
[7]
  T/C: 92 % of control

## Nc1nc(-c2cccc([N+](=O)[O-])c2)c(N=Nc2cccc([N+](=O)[O-])c2)s1
[8]
  T/C: 89 % of control
[9]
  T/C: 90 % of control

## CCC(C)NC(=O)Nc1ccccc1C(F)(F)F (stereo unspecified)
[8]
  T/C: 106 % of control
[10]
  T/C: 92 % of control
[11]
  T/C: 95 % of control
[12]
  T/C: 88 % of control
[9]
  T/C: 89 % of control
[13]
  T/C: 94 % of control

## N#CC12CCCC(=O)N1C=Cc1ccccc12 (stereo unspecified)
[1]
  T/C: 107 % of control
[2]
  T/C: 100 % of control
[14]
  T/C: 97 % of control

## O=C1NC(O)c2ccccc2O1 (stereo unspecified)
endpoint: mean survival time, dose: 12.5 mg/kg/injection, schedule: Q01DX009 (ip), vehicle: saline with Tween-80
  T/C: 101 % of control
endpoint: mean survival time, dose: 12.5 mg/kg/injection, schedule: Q01DX009 (ip), vehicle: suspension in saline
  T/C: 95 % of control
endpoint: mean survival time, dose: 25.0 mg/kg/injection, schedule: Q01DX009 (ip), vehicle: saline with Tween-80
  T/C: 96 % of control
endpoint: mean survival time, dose: 25.0 mg/kg/injection, schedule: Q01DX009 (ip), vehicle: suspension in saline
  T/C: 97 % of control
[15]
  T/C: 98 % of control
endpoint: mean survival time, dose: 50.0 mg/kg/injection, schedule: Q01DX009 (ip), vehicle: suspension in saline
  T/C: 104 % of control
[10]
  T/C: 101 % of control and 108 % of control
endpoint: mean survival time, dose: 100.0 mg/kg/injection, schedule: Q01DX009 (ip), vehicle: suspension in saline
  T/C: 101 % of control
[12]
  T/C: 115 % of control and 106 % of control
endpoint: mean survival time, dose: 200.0 mg/kg/injection, schedule: Q01DX009 (ip), vehicle: suspension in saline
  T/C: 119 % of control
endpoint: mean survival time, dose: 400.0 mg/kg/injection, schedule: Q01DX009 (ip), vehicle: suspension in saline
  T/C: 95 % of control

## Cc1cc(C(C)(C)C)c(Oc2ccc([N+](=O)[O-])cc2S(=O)(=O)O)c(C(C)(C)C)c1
[16]
  T/C: 102 % of control
[6]
  T/C: 101 % of control
[7]
  T/C: 92 % of control

## Cc1ccc(-c2csc(/N=C/c3ccccc3O)n2)cc1
[8]
  T/C: 89 % of control
[11]
  T/C: 86 % of control
[9]
  T/C: 86 % of control

## N#CCCNCCNCCC#N
[15]
  T/C: 96 % of control
[10]
  T/C: 104 % of control
[12]
  T/C: 104 % of control

## CCOC(=O)C(CNc1ccccc1)C(=O)OCC
[16]
  T/C: 101 % of control
[6]
  T/C: 104 % of control
[7]
  T/C: 104 % of control

## Nc1ccn(C2OC(C(OC3OC(CO)C(O)C(N)C3O)C(O)C(O)C(O)C(O)CO)C(N)C(O)C2O)c(=O)n1 (stereo unspecified)
endpoint: mean survival time, dose: 0.1 mg/kg/injection, schedule: Q01DX005 (ip), vehicle: saline
  T/C: 104 % of control
endpoint: mean survival time, dose: 0.2 mg/kg/injection, schedule: Q01DX005 (ip), vehicle: saline
  T/C: 102 % of control
endpoint: mean survival time, dose: 0.4 mg/kg/injection, schedule: Q01DX005 (ip), vehicle: saline
  T/C: 101 % of control

## CCc1ccccc1NC(=O)/C=C/C(=O)O
[10]
  T/C: 102 % of control
[16]
  T/C: 98 % of control
[12]
  T/C: 100 % of control
[13]
  T/C: 102 % of control
[7]
  T/C: 92 % of control

## C=C(C)C1C2CC3(C)C4(CO4)C4OC4C3(O)C1C(=O)O2 (stereo unspecified)
endpoint: median survival time, dose: 0.25 mg/kg/injection, schedule: Q01DX009 (ip), vehicle: Klucel (hydroxypropylcellulose) (HPC)
  T/C: 100 % of control
endpoint: median survival time, dose: 0.5 mg/kg/injection, schedule: Q01DX009 (ip), vehicle: Klucel (hydroxypropylcellulose) (HPC)
  T/C: 98 % of control
endpoint: median survival time, dose: 1.0 mg/kg/injection, schedule: Q01DX009 (ip), vehicle: Klucel (hydroxypropylcellulose) (HPC)
  T/C: 103 % of control
endpoint: median survival time, dose: 2.0 mg/kg/injection, schedule: Q01DX009 (ip), vehicle: Klucel (hydroxypropylcellulose) (HPC)
  T/C: 97 % of control

## COc1cccc(N2CCN(CC(O)COc3ccc(N)cc3)CC2)c1 (stereo unspecified)
endpoint: mean survival time, dose: 6.25 mg/kg/injection, schedule: Q04DX002 (ip), vehicle: other
  T/C: 98 % of control
endpoint: mean survival time, dose: 12.5 mg/kg/injection, schedule: Q04DX002 (ip), vehicle: other
  T/C: 95 % of control
endpoint: mean survival time, dose: 25.0 mg/kg/injection, schedule: Q04DX002 (ip), vehicle: other
  T/C: 107 % of control

## O=C(NCCc1ccccc1)c1ccccc1
[10]
  T/C: 101 % of control
[12]
  T/C: 107 % of control
[13]
  T/C: 97 % of control

## CC1/C(=N\Nc2ccc([N+](=O)[O-])cc2[N+](=O)[O-])CCC2C1(C)CCC1C2(C)CCC2(C)C3CC(C)(C)CCC3(C)CCC12C (stereo unspecified)
[1]
  T/C: 97 % of control
[2]
  T/C: 97 % of control
[14]
  T/C: 97 % of control

## O=C(COc1ccccc1[N+](=O)[O-])CN1C(=O)c2ccccc2C1=O
[3]
  T/C: 91 % of control
[4]
  T/C: 91 % of control
[5]
  T/C: 91 % of control

## O=C(c1cccnc1)c1cn(C2OC(CO)C(O)C(O)C2O)c2ccccc12 (stereo unspecified)
endpoint: mean survival time, dose: 12.5 mg/kg/injection, schedule: Q01DX005 (ip), vehicle: other
  T/C: 93 % of control
endpoint: mean survival time, dose: 25.0 mg/kg/injection, schedule: Q01DX005 (ip), vehicle: other
  T/C: 97 % of control
endpoint: mean survival time, dose: 50.0 mg/kg/injection, schedule: Q01DX005 (ip), vehicle: other
  T/C: 104 % of control
endpoint: mean survival time, dose: 100.0 mg/kg/injection, schedule: Q01DX005 (ip), vehicle: other
  T/C: 97 % of control
endpoint: mean survival time, dose: 200.0 mg/kg/injection, schedule: Q01DX005 (ip), vehicle: other
  T/C: 95 % of control

## C=CC1CC[N-]CC1.C=CC1CC[N-]CC1.C=CC1CC[N-]CC1.[Cl][Cr]([Cl])[Cl]
endpoint: mean survival time, dose: 100.0 mg/kg/injection, schedule: Q04DX003 (ip), vehicle: saline
  T/C: 102 % of control
